According to patent publication US12384789B2, “Compounds for treating Huntington's disease” (PTC Therapeutics, Inc., priority 2017, dated 2025):

Test system: Endogenous Huntingtin Protein
Test: Endogenous Huntingtin Protein Assay (Meso Scale Discovery ELISA-based electrochemiluminescence)
Type: cell-based
Conditions: MSD electrochemiluminescence, Table 1
Procedure: Compounds of Formula (I) were tested using the Meso Scale Discovery (MSD) Assay provided in International Application No. PCT/US2016/066042, filed on Dec. 11, 2016 and claiming priority to United States Provisional Application U.S. 62/265,652 filed on Dec. 10, 2015, the entire contents of which are incorporated herein by reference.
The Endogenous Huntingtin Protein assay used in Example 1 was developed using the ELISA-based MSD electrochemiluminescence assay platform.
Endogenous Huntingtin Protein Assay
Meso Scale Discovery (MSD) 96-well or 384-well plates were coated overnight at 4° C. with MW1 (expanded polyglutamine) or MAB2166 monoclonal antibody (for capture) at a concentration of 1 μg/mL in PBS (30 μL per well). Plates were then washed three times with 300 μL wash buffer (0.05% Tween-20 in PBS) and blocked (100 μL blocking buffer; 5% BSA in PBS) for 4-5 hours at room temperature with rotational shaking and then washed three times with wash buffer.
Samples (25 μL) were transferred to the antibody-coated MSD plate and incubated overnight at 4° C. After removal of the lysates, the plate was washed three times with wash buffer, and 25 μL of #5656S (Cell signaling; rabbit monoclonal) secondary antibody (diluted to 0.25 μg/mL in 0.05% Tween-20 in blocking buffer) was added to each well and incubated with shaking for 1 Hour at room temperature. Following incubation with the secondary antibody, the wells were rinsed with wash buffer after which 25 μL of goat anti-rabbit SULFO TAG secondary detection antibody (required aspect of the MSD system) (diluted to 0.25 μg/mL in 0.05% Tween-20 in blocking buffer) was added to each well and incubated with shaking for 1 hour at room temperature. After rinsing three times with wash buffer, 150 μL of read buffer T with surfactant (MSD) were added to each empty well, and the plate was imaged on a SI 6000 imager (MSD) according to manufacturers' instructions provided for 96- or 384-well plates.

| IC50 | SMILES |
| --- | --- |
| ≤ 100 nM | Cc1cn2nc(-c3cc(F)c4cc(C5CCCNCC5)nnc4c3)cc(C)c2n1 (stereo not drawn) [Compound 129, 3-(azepan-4-yl)-7-(2,8-dimethylimidazo[1,2-b]pyridazin-6-yl)-5-fluorocinnoline] |
| ≤ 100 nM | CCN1CCC(c2cnc3cc(-c4cc(C)c5nc(C)cn5n4)cc(F)c3n2)CC1 [Compound 110, 6-(2,8-dimethylimidazo[1,2-b]pyridazin-6-yl)-2-(1-ethylpiperidin-4-yl)-8-fluoroquinoxaline] |
| ≤ 100 nM | Cc1cn2nc(-c3cc(F)c4cc(N5CC6(CCNC6)C5)nnc4c3)cc(C)c2n1 [Compound 217, 3-(2,6-diazaspiro[3.4]octan-2-yl)-7-(2,8-dimethylimidazo[1,2-b]pyridazin-6-yl)-5-fluorocinnoline] |
| ≤ 100 nM | Cc1cn2nc(-c3cc(F)c4cc(C5C[C@H](C)N[C@@H](C)C5)nnc4c3)cc(C)c2n1 (stereo partly drawn) [Compound 87, 7-(2,8-dimethylimidazo[1,2-b]pyridazin-6-yl)-3-[(2S,6S)-2,6-dimethylpiperidin-4-yl]-5-fluorocinnoline] |
| ≤ 100 nM | CCN1[C@H](C)CC(c2cc3c(F)cc(-c4cc(C)c5nc(C)cn5n4)cc3nn2)C[C@H]1C (stereo partly drawn) [Compound 125, 7-(2,8-dimethylimidazo[1,2-b]pyridazin-6-yl)-3-[(2R,6R)-1-ethyl-2,6-dimethylpiperidin-4-yl]-5-fluorocinnoline] |
| ≤ 100 nM | Cc1cn2nc(-c3cc(F)c4cc(N5CCC(N(C)C)CC5)nnc4c3)cc(C)c2n1 [Compound 88, 1-[7-(2,8-dimethylimidazo[1,2-b]pyridazin-6-yl)-5-fluorocinnolin-3-yl]-N,N-dimethylpiperidin-4-amine] |
| ≤ 100 nM | Cc1cc(-c2cc(F)c3nc(C4CCNCC4)nnc3c2)cc2cn(C)nc12 [Compound 33, 7-(2,7-dimethyl-2H-indazol-5-yl)-5-fluoro-3-(piperidin-4-yl)-1,2,4-benzotriazine] |
| ≤ 100 nM | Cc1cc(-c2nnc3cc(C4CCNCC4)ccc3n2)cc2cn(C)nc12 [Compound 17, 3-(2,7-dimethyl-2H-indazol-5-yl)-7-(piperidin-4-yl)-1,2,4-benzotriazine] |
| ≤ 100 nM | CC[C@H]1CC(c2cc3c(F)cc(-c4cc(C)c5nc(C)cn5n4)cc3nn2)C[C@H](CC)N1 (stereo partly drawn) [Compound 130, 3-[(2S,6S)-2,6-diethylpiperidin-4-yl]-7-(2,8-dimethylimidazo[1,2-b]pyridazin-6-yl)-5-fluorocinnoline] |
| ≤ 100 nM | Cc1cc(-c2cc(F)c3cc(C4CCNCC4)nnc3c2)nc2cn(C)nc12 [Compound 162, 7-(2,7-dimethyl-2H-pyrazolo[4,3-b]pyridin-5-yl)-5-fluoro-3-(piperidin-4-yl)cinnoline] |
| 100 to 500 nM | Cc1cn2nc(-c3cc(F)c4cc(N5CC6CC5CN6C)nnc4c3)cc(C)c2n1 (stereo not drawn) [Compound 209, 7-(2,8-dimethylimidazo[1,2-b]pyridazin-6-yl)-5-fluoro-3-(5-methyl-2,5-diazabicyclo[2.2.1]heptan-2-yl)cinnoline] |
| ≤ 100 nM | Cc1cn2nc(-c3cc(F)c4cc(C5CCN(CCCn6cccn6)CC5)nnc4c3)cc(C)c2n1 [Compound 160, 7-(2,8-dimethylimidazo[1,2-b]pyridazin-6-yl)-5-fluoro-3-{1-[3-(1H-pyrazol-1-yl)propyl]piperidin-4-yl}cinnoline] |
| 100 to 500 nM | CCN1[C@H](C)CC(c2cc3c(F)cc(-c4cc(C)c5nc(C)cn5n4)cc3nn2)C[C@@H]1C (stereo partly drawn) [Compound 168, 7-(2,8-dimethylimidazo[1,2-b]pyridazin-6-yl)-3-[(2R,6S)-1-ethyl-2,6-dimethylpiperidin-4-yl]-5-fluorocinnoline] |
| 100 to 500 nM | COCCOc1cc(-c2cc(F)c3nc(C4CCNCC4)ccc3c2)nn2cc(C)nc12 [Compound 53, 8-fluoro-6-[8-(2-methoxyethoxy)-2-methylimidazo[1,2-b]pyridazin-6-yl]-2-(piperidin-4-yl)quinoline] |
| ≤ 100 nM | Cc1cn2nc(-c3cc(F)c4cc(C5CCCN(CCO)CC5)nnc4c3)cc(C)c2n1 (stereo not drawn) [Compound 190, 2-{4-[7-(2,8-dimethylimidazo[1,2-b]pyridazin-6-yl)-5-fluorocinnolin-3-yl]azepan-1-yl}ethan-1-ol] |
| ≤ 100 nM | Cc1cn2cc(-c3cc(F)c4nc(C5CCNCC5)ccc4c3)cc(F)c2n1 [Compound 50, 8-fluoro-6-(8-fluoro-2-methylimidazo[1,2-a]pyridin-6-yl)-2-(piperidin-4-yl)quinoline] |
| ≤ 100 nM | CCN1CCC(c2cc3c(F)cc(-c4nc5cc(C)nc(C)c5s4)cc3nn2)CC1 [Compound 197, 7-(4,6-dimethyl[1,3]thiazolo[5,4-c]pyridin-2-yl)-3-(1-ethylpiperidin-4-yl)-5-fluorocinnoline] |

| IC50 | SMILES |
| --- | --- |
| ≤ 100 nM | Cc1cn2cc(-c3cc(F)c4cc(C5CCNCC5)nnc4c3)cc(C#N)c2n1 [Compound 93, 6-[5-fluoro-3-(piperidin-4-yl)cinnolin-7-yl]-2-methylimidazo[1,2-a]pyridine-8-carbonitrile] |
| ≤ 100 nM | CCN1CCC(c2cc3c(F)cc(-c4cc(C)c5nc(C)[nH]c5n4)cc3nn2)CC1 [Compound 132, 7-(2,7-dimethyl-3H-imidazo[4,5-b]pyridin-5-yl)-3-(1-ethylpiperidin-4-yl)-5-fluorocinnoline] |
| ≤ 100 nM | Cc1cn2nc(-c3cc(F)c4nc(C5CCN(C)CC5)ccc4c3)cc(C)c2n1 [Compound 47, 6-(2,8-dimethylimidazo[1,2-b]pyridazin-6-yl)-8-fluoro-2-(1-methylpiperidin-4-yl)quinoline] |
| 1000 to 3000 nM | Cc1cc(-c2cc3cnc(C4CCNCC4)nc3cc2F)cc2cn(C)nc12 [Compound 39, 6-(2,7-dimethyl-2H-indazol-5-yl)-7-fluoro-2-(piperidin-4-yl)quinazoline] |
| ≤ 100 nM | Cc1cn2nc(-c3cc(F)c4nc(C5CCN(C)CC5)nnc4c3)cc(C)c2n1 [Compound 69, 7-(2,8-dimethylimidazo[1,2-b]pyridazin-6-yl)-5-fluoro-3-(1-methylpiperidin-4-yl)-1,2,4-benzotriazine] |
| 100 to 500 nM | Cn1cc2cc(-c3ccc4nc(C5CCNCC5)ccc4c3)ccc2n1 [Compound 3, 6-(2-methyl-2H-indazol-5-yl)-2-(piperidin-4-yl)quinolone] |
| ≤ 100 nM | Cc1cn2nc(-c3cc(F)c4cc(C5CCN(CCO)CC5)nnc4c3)cc(C)c2n1 [Compound 75, 2-{4-[7-(2,8-dimethylimidazo[1,2-b]pyridazin-6-yl)-5-fluorocinnolin-3-yl]piperidin-1-yl}ethanol] |
| ≤ 100 nM | Cc1cn2nc(-c3cc(F)c4cc(N5CC6(CCNCC6)C5)nnc4c3)cc(C)c2n1 [Compound 221, 3-(2,7-diazaspiro[3.5]nonan-2-yl)-7-(2,8-dimethylimidazo[1,2-b]pyridazin-6-yl)-5-fluorocinnoline] |
| ≤ 100 nM | CCN1CCC(c2cc3c(F)cc(-c4cc(OC)c5nc(C)cn5n4)cc3nn2)CC1 [Compound 111, 3-(1-ethylpiperidin-4-yl)-5-fluoro-7-(8-methoxy-2-methylimidazo[1,2-b]pyridazin-6-yl)cinnoline] |
| ≤ 100 nM | Cc1cn2cc(-c3cc(F)c4nc(C5CCNCC5)nnc4c3)cc(F)c2n1 [Compound 58, 5-fluoro-7-(8-fluoro-2-methylimidazo[1,2-a]pyridin-6-yl)-3-(piperidin-4-yl)-1,2,4-benzotriazine] |
| ≤ 100 nM | Cc1cn2nc(-c3cc(F)c4cc(N5C[C@@H]6[C@H](C5)[C@H]6N(C)C)nnc4c3)cc(C)c2n1 [Compound 223, (1R,5S,6s)-3-[7-(2,8-dimethylimidazo[1,2-b]pyridazin-6-yl)-5-fluorocinnolin-3-yl]-N,N-dimethyl-3-azabicyclo[3.1.0]hexan-6-amine] |
| 100 to 500 nM | Cc1cn2nc(-c3cc(F)c4cc(C5=CC(C)(C)NC(C)(C)C5)nnc4c3)cc(C)c2n1 [Compound 208, 7-(2,8-dimethylimidazo[1,2-b]pyridazin-6-yl)-5-fluoro-3-(2,2,6,6-tetramethyl-1,2,3,6-tetrahydropyridin-4-yl)cinnoline] |
| ≤ 100 nM | Cc1cn2nc(-c3cc(F)c4cc(C5C[C@@H](C)N(C)[C@@H](C)C5)nnc4c3)cc(C)c2n1 (stereo partly drawn) [Compound 161] |
| ≤ 100 nM | Cn1cc2cc(-c3cc4c(F)cc(C5CCNCC5)cc4nn3)cc(F)c2n1 [Compound 151, 5-fluoro-3-(7-fluoro-2-methyl-2H-indazol-5-yl)-7-(piperidin-4-yl)cinnoline] |
| 100 to 500 nM | CCN1CCC(c2cc3c(F)cc(-c4nc5c(C)nc(C)cc5s4)cc3nn2)CC1 [Compound 147, 7-(4,6-dimethyl[1,3]thiazolo[4,5-c]pyridin-2-yl)-3-(1-ethylpiperidin-4-yl)-5-fluorocinnoline] |
| ≤ 100 nM | CCc1cc(-c2cc(F)c3cc(C4CCN(C)CC4)nnc3c2)nn2cc(C)nc12 [Compound 122, 7-(8-ethyl-2-methylimidazo[1,2-b]pyridazin-6-yl)-5-fluoro-3-(1-methylpiperidin-4-yl)cinnoline] |
